Laboratory results as given in patent US5155031A, “Use of pervanadate as an inhibitor of phosphotyrosine phosphatase” (priority 1990, dated 1992).
“Also recorded” adds a separate entry of the source. Read-outs that look alike come from different tables or passages of the source.

Experiments:
alkaline phosphatase = alkaline phosphatase catalyzed dephosphorylation of the lectin-purified insulin receptor; assay type: biochemical
Experimental: To do so, lectin-purified insulin receptor (6.0 fmol of insulin binding) was preincubated with 10^-7 M insulin for 60 min at 4° C. Phosphorylation was initiated by addition of [γ^-32 P]ATP, and the insulin receptor was immunoprecipitated by incubating with anti-insulin receptor antibody (140 μg of protein) for 4h at 4° C. followed by incubation with protein A-SEPHAROSE * beads for 1 h at 4° C. The immunoprecipitate was washed twice with 50 mM HEPES buffer, pH 7.6, containing 0.1% TRITON X-100 * detergent and 0.1% SDS and once with the above buffer without SDS. After being washed, the immunoprecipitate was incubated with or without the indicated concentrations of vanadate, H2 O2, or pervanadate in the presence or absence of a 15 units.mL solution of alkaline phosphatase for 60 min at 4° C. with vigorous shaking. This sample was washed twice with 50 mM HEPES buffer, pH 7.6, containing 0.1% TRITON X-100 * detergent and subjected to SDS-PAGE followed by radioautography as shown in FIG. 1. Densitometric scanning of the radioautographs was done with a ZEINER * soft laser scanning densitometer (Model SL-504-XL).

[1] = test system: rat hepatocyte phosphotyrosine phosphatase; experiment: insulin receptor tyrosine dephosphorylation catalyzed by crude phosphotyrosine phosphatase from rat liver microsomes; assay type: biochemical
Experimental: Since vanadate and pervanadate may have different specificities for various phosphoprotein phosphatases, their inhibitory effects were separated tested on insulin receptor tyrosine dephosphorylation catalyzed by a crude preparation of phosphotyrosine phosphatase activity extracted from rat liver microsomes.
The samples were processed as in example 1, except that after being washed, the immunoprecipitate was incubated with or without 10^-4 M vanadate, 10^-4 M H2 O2 or 10^-4 m pervanadate in the presence or absence of an equal volume, 50 μL, of rat hepatocyte phosphotyrosine phosphatase (as described above) for 20 min at 30° C. with vigorous shaking.

tyrosine phosphatases = conditions: cited from earlier work
tyrosine kinase = conditions: cited from earlier work
insulin receptor [2] = target: T1, insulin receptor (Rattus norvegicus, UniProt P15127); experiment: Insulin Receptor Autophosphorylation Assay; assay type: biochemical; conditions: 10^-3 to 10^-7 M, 15 min, 37° C.; WGA-purified adipocyte insulin receptors
T1 construct: Insulin receptors were solubilized and partially purified by WGA chromatography; endogenous in cells; host or cells: isolated rat adipocytes
Experimental: To elucidate further the mechanism of action of pervanadate, this compound was added in vitro to solubilized WGA-purified adipocyte insulin receptors.
Isolated rat adipocytes were incubated with different concentrations of pervanadate (10^-3 to 10^-7 M), 10 ng/mL (1.7×10^-9 M) insulin, or no additions for 15 min at 37° C. Insulin receptors were solubilized and partially purified by WGA chromatography. […] An aliquot of insulin receptor (5-10 fmol of insulin binding) was used in the autophosphorylation assay as described below, in the presence or absence of in vitro insulin, followed by SDS-PAGE and radioautography.
The Insulin Receptor Autophosphorylation Assay proceeded as follows: lectin-purified insulin receptor (5-10 fmol of insulin binding) was incubated with or without 10^-7 M insulin in a 50 mM HEPES buffer containing 8 mM MnCl2, 10 mM MgCl2, 270 μM dithiothreitol, and 10 μg/mL bovine serum albumin for 1 h at 4° C., in a total volume of 90 μL. The phosphorylation reaction was initiated by the addition of 10 μL of diluted [γ^-32 P]ATP (10 Ci/mmol) to a final concentration of 50 μM, and the reaction mixture was further incubated for 15 min at 4° C. […]

[3] = stability of the pervanadate solution; assay type: physicochemical; conditions: after catalase 200 μg/mL to remove residual H2 O2
Experimental: The vanadate solution used in the examples presented below was prepared as described in Kadota et al. supra, to avoid changes in pH and the generation of colored decavanadate (orange-yellow) or vanadyl ion, VO^2+ (blue). The solution of pervanadate was prepared by mixing vanadate or vanadate containing substance with H2 O2 or a peroxide-containing substance (10^-3 M unless otherwise indicated) for 15 min at 22° C. This was followed by the addition of catalase, 200 μg/mL, to remove residual H2 O2. […] The concentration of pervanadate generated is denoted by the vanadate concentration added to the mixture.

insulin receptor [4] = conditions: adipocytes, cited from earlier work
[5] = increasing concentrations, 15 units/mL alkaline phosphatase, 60 min, 4° C., SDS-PAGE, radioautography

T1 sequence (P15127 764-1383 limits assumed): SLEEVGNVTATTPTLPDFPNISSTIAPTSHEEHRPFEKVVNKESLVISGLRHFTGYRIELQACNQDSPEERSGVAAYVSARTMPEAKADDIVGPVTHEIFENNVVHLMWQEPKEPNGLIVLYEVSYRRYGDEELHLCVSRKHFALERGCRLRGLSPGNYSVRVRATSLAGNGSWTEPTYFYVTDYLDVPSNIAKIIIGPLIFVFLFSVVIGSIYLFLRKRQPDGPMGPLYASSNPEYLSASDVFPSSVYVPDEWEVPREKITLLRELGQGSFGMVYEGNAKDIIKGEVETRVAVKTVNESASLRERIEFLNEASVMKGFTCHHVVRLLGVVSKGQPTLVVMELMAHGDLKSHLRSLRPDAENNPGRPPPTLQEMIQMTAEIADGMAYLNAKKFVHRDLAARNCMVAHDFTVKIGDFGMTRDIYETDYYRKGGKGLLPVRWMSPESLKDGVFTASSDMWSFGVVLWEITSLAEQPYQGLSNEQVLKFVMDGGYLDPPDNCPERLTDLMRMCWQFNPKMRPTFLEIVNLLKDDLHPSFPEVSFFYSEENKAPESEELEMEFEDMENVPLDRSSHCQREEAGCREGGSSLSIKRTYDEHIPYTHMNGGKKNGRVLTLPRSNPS
T1 sequence (P15127 27-759 partner limits assumed): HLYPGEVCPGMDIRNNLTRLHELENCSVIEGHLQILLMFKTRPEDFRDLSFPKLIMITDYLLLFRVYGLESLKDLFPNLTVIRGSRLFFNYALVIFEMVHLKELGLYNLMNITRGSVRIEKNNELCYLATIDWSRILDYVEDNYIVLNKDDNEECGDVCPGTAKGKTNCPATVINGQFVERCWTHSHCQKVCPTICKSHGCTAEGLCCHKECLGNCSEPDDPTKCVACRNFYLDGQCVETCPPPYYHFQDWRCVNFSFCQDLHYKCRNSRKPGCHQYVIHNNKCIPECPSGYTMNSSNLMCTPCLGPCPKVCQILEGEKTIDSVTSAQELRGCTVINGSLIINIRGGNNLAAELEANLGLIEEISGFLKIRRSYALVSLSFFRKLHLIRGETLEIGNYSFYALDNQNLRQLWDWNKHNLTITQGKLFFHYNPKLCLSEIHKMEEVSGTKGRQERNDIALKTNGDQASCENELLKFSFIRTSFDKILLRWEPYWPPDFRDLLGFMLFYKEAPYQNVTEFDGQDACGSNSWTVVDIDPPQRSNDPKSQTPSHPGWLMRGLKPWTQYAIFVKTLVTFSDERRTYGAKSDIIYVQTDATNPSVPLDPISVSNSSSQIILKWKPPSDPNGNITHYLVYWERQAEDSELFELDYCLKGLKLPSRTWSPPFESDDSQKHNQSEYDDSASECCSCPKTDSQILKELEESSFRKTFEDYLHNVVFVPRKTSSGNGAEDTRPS

Row | Compound | inhibition of alkaline phosphatase-catalyzed dephosphorylation of 32P-labeled insulin receptor β-subunit (alkaline phosphatase; 10^-3 M alone) | inhibition of insulin receptor tyrosine dephosphorylation catalyzed by rat hepatocyte phosphotyrosine phosphatase [1] | inhibition of tyrosine phosphatases (tyrosine phosphatases) | inhibition of alkaline phosphatase-catalyzed dephosphorylation of 32P-labeled insulin receptor β-subunit (alkaline phosphatase; [5]) | inhibition of insulin receptor tyrosine dephosphorylation catalyzed by rat hepatocyte phosphotyrosine phosphatase ([1]; 10^-4 M, 20 min, 30° C.) | stimulation of autophosphorylation of exogenous tyrosine kinase activity (tyrosine kinase) | stimulation of insulin receptor autophosphorylation (insulin receptor [2]) | time the peroxidized form of vanadate is stable without further addition of H2 O2 [3] | in situ tyrosine phosphorylation of the insulin receptor (insulin receptor [4]) | activation of the insulin receptor kinase (insulin receptor [4]; time course versus insulin)
1 | OO [H2 O2, hydrogen peroxide, reference compound] | without effect | without effect | – | – | – | – | – | – | – | –
2 | [O]=[V]([O-])([O-])[O-] [vanadate] | – | – | inhibit tyrosine phosphatases | inhibited the dephosphorylation of the ^32 P-labeled insulin receptor in a dose- dependent manner | inhibited dephosphorylation but with less efficacy | – | – | – | – | –
3 | pervanadate | – | – | – | much less than that by vanadate alone; also recorded: does not inhibit | powerfully inhibited tyrosine dephosphorylation; also recorded: potent inhibitor; also recorded: more efficacious than vanadate | does not either stimulate | did not significantly stimulate autophosphorylation | 2 h | maximal effects similar to that of insulin | activates the insulin receptor kinase but with a slower time course than insulin
